These results are taken from patent US4348393A, “N-Aryl oxazolidinones, oxazolidinethiones, pyrrolidinones, pyrrolidines and thiazolidinones” (Delalande S.A., priority 1978, dated 1982).

The structures appear in SMILES notation. Like-named read-outs stand apart in the source and are kept apart here.

For assay [1], the system named is generalized trembling caused by dl-5-hydroxytryptophane. In words: Test A: potentiation in mice of generalized trembling caused by dl-5-hydroxytryptophane. Type of assay: in vivo. The following applies: Mus musculus, po, read-out: Test A ED 50. The procedure: Test A: Potentiation in mice of generalized trembling caused by an interperitoneal injection (200 mg/kg) of dl-5-hydroxytryptophane, following the protocol described by C. GOURET and G. RAYNAUD in J. Pharmacol. (Paris), (1974), 5, 231.

Assay [2] has as its system ptosis observed one hour after reserpine. In words: Test B: antagonism of reserpine-induced ptosis in mice. Type of assay: in vivo. The following applies: Mus musculus, 1 h, po, antagonism of ptosis one hour after reserpine 2 mg/kg intravenous, read-out: Test B ED 50. The procedure: Test B: Antagonism with respect to the ptosis observed one hour after an intravenous injection (2 mg/kg) of reserpine given to mice, following the protocol described by C.

Where [3] appears, read: mice, potentiation of trembling by dl-5-hydroxytryptophane 200 mg/kg interperitoneal.

Regarding `OCC1CN(c2ccc(OCc3cccc(Cl)c3)cc2)C(=S)O1` (stereo not shown) [compound 93], the ED50 in assay [1] (setting [3]) turned out to be 9 mg/kg; in assay [2] it was 6 mg/kg.
For `C#CCOCC1CN(c2ccc(OCc3cccc([N+](=O)[O-])c3)cc2)C(=O)O1` (stereo not shown) [compound 72], the results for the ED50 in assay [1] (setting [3]) and in assay [2] were 0.8 mg/kg and 1 mg/kg, respectively.
On the same counts, the results for `CCCCC(=O)OCC1CN(c2ccc(OCc3ccccc3)cc2)C(=O)O1` (stereo not shown) [compound 26] are 12.5 mg/kg and 20 mg/kg.
In the case of `CCOCC1CN(c2ccc(OCC3CCCC3)cc2)C(=O)O1` (stereo not shown) [compound 146], the ED50 in assay [1] (setting [3]) worked out at 5 mg/kg; in assay [2], 12.5 mg/kg.
For `OCC1CN(c2ccc(OCc3cccc(F)c3)cc2)C(=S)O1` (stereo not shown) [compound 177], in that order: 8 mg/kg and 15.5 mg/kg.
As for `CCCCCCCCC(=O)OCC1CN(c2ccc(OCc3cccc(C#N)c3)cc2)C(=O)O1` (stereo not shown) [compound 133], the ED50 in assay [1] (setting [3]) was 6 mg/kg; in assay [2] it was 5.2 mg/kg.
Consider `Cc1cccc(N2CC(CO)OC2=O)c1` (stereo not shown) [TOLOXATONE, reference compound], for which the ED50 in assay [1] (setting [3]) was determined as 60 mg/kg; in assay [2], 50 mg/kg.
On the same counts, the results for `COCC1CN(c2ccc(OCC3CCCCCC3)cc2)C(=O)O1` (stereo not shown) [compound 150] are 0.7 mg/kg and 0.5 mg/kg.
For `N#CCCOc1ccc(N2CC(COC(=O)C3CCCCC3)OC2=O)cc1` (stereo not shown) [compound 8], in that order: 2.2 mg/kg and 7.2 mg/kg.
On to `CCCCCCCCC(=O)OCC1CN(c2ccc(OCCC(C)C)cc2)C(=O)O1` (stereo not shown) [compound 126], for which the ED50 in assay [1] (setting [3]) was 4.4 mg/kg; in assay [2], 1.8 mg/kg.
As for `CNCC1CN(c2ccc(OCCC(C)C)cc2)C(=O)O1` (stereo not shown) [compound 79], the ED50 in assay [1] (setting [3]) was 6.2 mg/kg; in assay [2], 2 mg/kg.
Consider `CCOCC1CN(c2ccc(OCc3cccc(Cl)c3)cc2)C(=O)O1` (stereo not shown) [compound 155], for which the ED50 was determined as 9.6 mg/kg in assay [1] (setting [3]) and 3 mg/kg in assay [2].
For `COCC1CN(c2ccc(OCc3ccc(F)c(C#N)c3)cc2)C(=O)O1` (stereo not shown) [compound 162], in that order: 0.54 mg/kg and 1.55 mg/kg.
In the case of `CCCCOc1ccc(N2CC(COC(=O)C(C)(C)C)OC2=O)cc1` (stereo not shown) [compound 12], the results for the ED50 in assay [1] (setting [3]) and in assay [2] were 4.6 mg/kg and 6 mg/kg, respectively.
For `COCC1CN(c2ccc(OCC(C)=O)cc2)C(=O)O1` (stereo not shown) [compound 151], in that order: 5.2 mg/kg and 5 mg/kg.
With `CC(=O)OCC1CN(c2ccc(OCc3cccc([N+](=O)[O-])c3)cc2)C(=O)O1` (stereo not shown) [compound 36, Para (meta-nitrobenzyloxy) phenyl-3 acetoxy-methyl-5 oxazolidinone-2], the ED50 in assay [1] (setting [3]) turned out to be 1.7 mg/kg; in assay [2], 1.5 mg/kg.
For `O=C(OCC1CN(c2ccc(OCc3cccc([N+](=O)[O-])c3)cc2)C(=O)O1)c1ccccc1` (stereo not shown) [compound 43], in that order: 15 mg/kg and 17.5 mg/kg.
On the same counts, the results for `COCC1CN(c2ccc(OCCCCC#N)cc2)C(=O)O1` (stereo not shown) [compound 112] are 0.1 mg/kg and 0.15 mg/kg.
With `CCCCCCCCC(=O)OCC1CN(c2ccc(OCc3cccc(Cl)c3)cc2)C(=O)O1` (stereo not shown) [compound 35], the ED50 in assay [1] (setting [3]) came out at 19 mg/kg; in assay [2], 6.5 mg/kg.
On the same counts, the results for `COCC1CN(c2ccc(OCc3cccc(C#N)c3)cc2)C(=O)O1` (stereo not shown) [compound 65] are 0.28 mg/kg and 0.75 mg/kg.
On the same counts, the results for `N#Cc1cccc(COc2ccc(N3CC(CO)OC3=S)cc2)c1` (stereo not shown) [compound 97] are 3.9 mg/kg and 3.2 mg/kg.
On to `CN(C)CC1CN(c2ccc(OCc3cccc([N+](=O)[O-])c3)cc2)C(=O)O1` (stereo not shown) [compound 86], for which the ED50 amounted to 4.5 mg/kg in assay [1] and 4.8 mg/kg in assay [2].
With `CC(C)CCOc1ccc(N2CC(COC(=O)C3CCCCC3)OC2=O)cc1` (stereo not shown) [compound 129], the values for the ED50 in assay [1] (setting [3]) and in assay [2] were 7.5 mg/kg and 12 mg/kg, respectively.
On the same counts, the results for `CC(C)C(=O)OCC1CN(c2ccc(OCC3CCCCC3)cc2)C(=O)O1` (stereo not shown) [compound 103] are 5 mg/kg and 6 mg/kg.
Take `CC(C)CCOc1ccc(N2CC(CN)OC2=O)cc1` (stereo not shown) [compound 174]: the ED50 in assay [1] (setting [3]) stood at 3 mg/kg; in assay [2] it was 3.5 mg/kg.
On the same counts, the results for `CCC(=O)OCC1CN(c2ccc(OCc3cccc(Cl)c3)cc2)C(=O)O1` (stereo not shown) [compound 31] are 6.5 mg/kg and 3.6 mg/kg.
In the case of `COCC1CN(c2ccc(OCc3cc(Cl)cc(Cl)c3)cc2)C(=O)O1` (stereo not shown) [compound 166], the ED50 was 3.8 mg/kg in assay [1] (setting [3]) and 3.4 mg/kg in assay [2].
Turning to `CC(C)(C)C(=O)OCC1CN(c2ccc(OCc3cccc(Cl)c3)cc2)C(=O)O1` (stereo not shown) [compound 34], the ED50 was determined as 7 mg/kg in assay [1] (setting [3]) and 7.5 mg/kg in assay [2].
On the same counts, the results for `CCCOCC1CN(c2ccc(OCCC#N)cc2)C(=O)O1` (stereo not shown) [compound 145] are 8.5 mg/kg and 12 mg/kg.
On the same counts, the results for `OCC1CN(c2ccc(OCC3CCCCC3)cc2)C(=S)O1` (stereo not shown) [compound 90] are 3 mg/kg and 8 mg/kg.
On the same counts, the results for `CCOCC1CN(c2ccc(OCc3cccc(C#N)c3)cc2)C(=O)O1` (stereo not shown) [compound 167] are 3.7 mg/kg and 3 mg/kg.
On to `COCC1CN(c2ccc(/C=C\c3ccccc3)cc2)C(=O)O1` (stereo not shown) [compound 193], for which the ED50 in assay [1] (setting [3]) was determined as 19 mg/kg; in assay [2], 30 mg/kg.
`CCCOCC1CN(c2ccc(OCc3cccc([N+](=O)[O-])c3)cc2)C(=O)O1` (stereo not shown) [compound 70]: the ED50 in assay [1] (setting [3]) came out at 0.8 mg/kg; in assay [2] it was 0.6 mg/kg.
On the same counts, the results for `CC(=O)OCC1CN(c2ccc(OCC#N)cc2)C(=O)O1` (stereo not shown) [compound 1] are 12.5 mg/kg and 6.2 mg/kg.
On the same counts, the results for `CCCCOc1ccc(N2CC(COCC)OC2=O)cc1` (stereo not shown) [compound 109] are 10 mg/kg and 1 mg/kg.
For `CC(C)C(=O)OCC1CN(c2ccc(OCc3ccccc3)cc2)C(=O)O1` (stereo not shown) [compound 25], in that order: 15 mg/kg and 25 mg/kg.
For `CCCCCCCCC(=O)OCC1CN(c2ccc(OCc3ccccc3)cc2)C(=O)O1` (stereo not shown) [compound 28], the ED50 is 32 mg/kg in assay [1] (setting [3]) and 20 mg/kg in assay [2].
For `CC(=O)OCC1CN(c2ccc(OCc3cccc(Cl)c3)cc2)C(=O)O1` (stereo not shown) [compound 30], in that order: 4.2 mg/kg and 4.5 mg/kg.
For `CCCCOc1ccc(N2CC(COC(C)C)OC2=O)cc1` (stereo not shown) [compound 47, para-n-butyloxy phenyl-3 isopropyloxymethyl-5 oxazolidinone-2], in that order: 18 mg/kg and 36 mg/kg.
For `COCC1CN(c2ccc(OCc3ccccc3)cc2)C(=O)O1` (stereo not shown) [compound 57], in that order: 7.8 mg/kg and 9 mg/kg.
On to `CCCCOc1ccc(N2CC(CNC)OC2=O)cc1` (stereo not shown) [compound 74], for which the results for the ED50 in assay [1] (setting [3]) and in assay [2] were 4 mg/kg and 6.2 mg/kg, respectively.
For `CCOCC1CN(c2ccc(OCc3ccccc3)cc2)C(=O)O1` (stereo not shown) [compound 154], in that order: 19 mg/kg and 17.5 mg/kg.
For `CCCCOc1ccc(N2CC(CN)OC2=O)cc1` (stereo not shown) [compound 170], in that order: 12.5 mg/kg and 16 mg/kg.
On the same counts, the results for `CCC(=O)OCC1CN(c2ccc(OCc3cccc([N+](=O)[O-])c3)cc2)C(=O)O1` (stereo not shown) [compound 37] are 1.9 mg/kg and 2 mg/kg.
For the molecule `OCC1CN(c2ccc(OCc3ccc(F)cc3)cc2)C(=S)O1` (stereo not shown) [compound 96], the ED50 in assay [1] (setting [3]) is 4.7 mg/kg; in assay [2], 3.6 mg/kg.
For `NCC1CN(c2ccc(OCc3ccccc3)cc2)C(=O)O1` (stereo not shown) [compound 80], in that order: 20 mg/kg and 25 mg/kg.
For `CC(C)C(=O)OCC1CN(c2ccc(OCCC#N)cc2)C(=O)O1` (stereo not shown) [compound 5], in that order: 4.7 mg/kg and 9.5 mg/kg.
For `O=C1OC(COC2CCCCC2)CN1c1ccc(OCc2cccc([N+](=O)[O-])c2)cc1` (stereo not shown) [compound 63], in that order: 9.4 mg/kg and 16.5 mg/kg.
Take `COCC1CN(c2ccc(OCc3ccc([N+](=O)[O-])cc3)cc2)C(=O)O1` (stereo not shown) [compound 165]: the values for the ED50 in assay [1] (setting [3]) and in assay [2] were 6.8 mg/kg and 4.7 mg/kg, respectively.
For `CCOCC1CN(c2ccc(OCCC#N)cc2)C(=O)O1` (stereo not shown) [compound 147], in that order: 1.5 mg/kg and 2.6 mg/kg.
For `COCC1CN(c2ccc(OCc3ccc(Cl)c(Cl)c3)cc2)C(=O)O1` (stereo not shown) [compound 164], in that order: 3.4 mg/kg and 3.4 mg/kg.
On the same counts, the results for `O=C1OC(COC2CCCCC2)CN1c1ccc(OCC2CCCC2)cc1` (stereo not shown) [compound 51] are 27 mg/kg and 50 mg/kg.
Take `CCCCOc1ccc(N2CC(COCCC)OC2=O)cc1` (stereo not shown) [compound 142]: the ED50 in assay [1] (setting [3]) was 18 mg/kg; in assay [2] it was 17.5 mg/kg.
For `CC(C)OCC1CN(c2ccc(OCCC#N)cc2)C(=O)O1` (stereo not shown) [compound 53], in that order: 5 mg/kg and 5.8 mg/kg.
For `CCC(=O)OCC1CN(c2ccc(OCC#N)cc2)C(=O)O1` (stereo not shown) [compound 2], in that order: 12.5 mg/kg and 8 mg/kg.
`CCCCC(=O)OCC1CN(c2ccc(OCCC#N)cc2)C(=O)O1` (stereo not shown) [compound 6]: the ED50 is 2.4 mg/kg in assay [1] (setting [3]) and 6 mg/kg in assay [2].
For `CCCCOc1ccc(N2CC(COC3CCCCC3)OC2=O)cc1` (stereo not shown) [compound 48], in that order: 50 mg/kg and 50 mg/kg.
For `CC(=O)OCC1CN(c2ccc(OCc3ccccc3)cc2)C(=O)O1` (stereo not shown) [compound 23], in that order: 12 mg/kg and 12.5 mg/kg.
For `CCCOCC1CN(c2ccc(OCC3CCCC3)cc2)C(=O)O1` (stereo not shown) [compound 143], in that order: 12.5 mg/kg and 12 mg/kg.
